These results are taken from ChEMBL document CHEMBL1201862, “PubChem BioAssay data set” (2004).

Some test systems named below: T47D; M19-MEL; RXF 631; NCI/ADR-RES; SNB-78; KM-20L2; HOP-18; MDA-N; LXFL 529.
Common to all, as to assay: growth of human tumour cells (NCI), 48 h

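Interpolation was linear, between the two tested concentrations surrounding the appropriate level; five concentrations were tested over 48 hours in 96-well plates. GI50 = concentration required for 50% inhibition of growth.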 Calls of active or inactive are those of the source. No stated cut-off is given here; in the data, active = GI50 up to about 1.1 µM and inactive = higher. Positions of bridges follow the written chain, without caps; N, C: chain ends. Residues, ends and D or L forms follow the SMILES beside them. Some results are limits rather than exact numbers.

On to `C/C(=N\N=C(/S)N1CC2CCC(CC2)C1)c1cccc[n+]1[O-]`, for which the GI50 in the experiment with T47D was 22.6 µM (inactive); in the experiment with M19-MEL, 3.58 µM (inactive); in the experiment with RXF 631, 3.45 µM (inactive); in the experiment on NCI/ADR-RES, 3.09 µM (inactive); in the experiment with SNB-78, 8.34 µM (inactive); in the experiment on KM-20L2 it was 1.52 µM (inactive). Besides, the GI50 was 30.3 µM (inactive) in the experiment with HOP-18 and 14.2 µM (inactive) in the experiment on MDA-N.
Consider `O=C(/C=C/c1cccc([N+](=O)[O-])c1)c1cccnc1`, for which the GI50 with LXFL 529 is 21 µM (inactive); in the experiment on M19-MEL it was 31.2 µM (inactive); in the experiment with SNB-78 it was 41.2 µM (inactive); in the experiment with KM-20L2, 27.7 µM (inactive); in the experiment on HOP-18 it was 2.06 µM (inactive).
Regarding `Cn1cnc([N+](=O)[O-])c1Sc1nc2cccnc2s1`, the GI50 in the experiment with LXFL 529 was 12.4 µM (inactive); with M19-MEL it was 14.9 µM (inactive); in the experiment with RXF 631, 14.6 µM (inactive); with SNB-78, 46.9 µM (inactive); in the experiment on KM-20L2, 16.9 µM (inactive).
As for `CC(=O)C1(O)CCC2(O)C3(O)CC=C4CC(O)CCC4(C)C3CC(OC(=O)c3ccc(O)cc3)C12C.COC1CC(OC2C(C)OC(OC3C(C)OC(OC4CCC5(C)C(=CCC6(O)C5CC(OC(=O)c5ccc(O)cc5)C5(C)C(O)(C(C)=O)CCC65O)C4)CC3OC)CC2OC)OC(C)C1O` (stereo not given), the GI50 in the experiment with LXFL 529 was 24.9 µM (inactive); in the experiment with M19-MEL, 35.5 µM (inactive); in the experiment with RXF 631 it was 76 µM (inactive); in the experiment with SNB-78, 20.6 µM (inactive); with HOP-18, 38.7 µM (inactive).
Take `Cc1ccc(/N=C2\C(=N/c3ccc(C)cc3)N(c3ccc(C)cc3)C(=S)N2C(=O)c2ccccc2)cc1`: the GI50 in the experiment with T47D, with NCI/ADR-RES and with MDA-N was > 100 µM (inactive) throughout.
With `CN(C)C1(C#N)CCC2(CC1)OCCO2`, the GI50 with M19-MEL, in the experiment with SNB-78 and in the experiment with KM-20L2 was > 100 µM (inactive) in each case.
Consider `CCc1cccc(C(C)CC)c1NC(=O)CC1C(=O)Nc2ccccc2[S+]1[O-]` (stereo not given), for which the GI50 with LXFL 529 was 31.4 µM (inactive); in the experiment with M19-MEL, 32.8 µM (inactive); with RXF 631, 36.1 µM (inactive); in the experiment on SNB-78, 28.8 µM (inactive); in the experiment with KM-20L2 it was 61.2 µM (inactive).
Turning to `O=C(CNc1nncs1)NO`, the GI50 in the experiment with LXFL 529, with M19-MEL, with SNB-78, in the experiment with KM-20L2 and in the experiment on HOP-18 was > 100 µM (inactive) each time.
On to `CC1(C)OC2C(CO)OC(n3cnc(N)nc3=O)C2O1` (stereo not given), for which the GI50 with T47D, in the experiment with NCI/ADR-RES and in the experiment with MDA-N was > 100 µM (inactive) throughout.
In the case of `C=Cc1cncc(C#N)c1CCc1c(C#N)cncc1C=C`, the GI50 in the experiment with LXFL 529, in the experiment with M19-MEL, with SNB-78, with KM-20L2 and in the experiment on HOP-18 was > 10 µM (inactive) throughout.
For `Cc1cc(=O)[nH]c2cc(NC(=O)C(CCCNC(=N)N)NC(=O)OCc3ccccc3)ccc12` (stereo not given), the GI50 in the experiment on T47D, in the experiment with NCI/ADR-RES and in the experiment on MDA-N was > 100 µM (inactive) each time.
Regarding `CN(C)CCCN1c2ccc([N+](=O)[O-])cc2CCc2cc([N+](=O)[O-])ccc21`, the values for the GI50 in the experiment with T47D, in the experiment on NCI/ADR-RES and in the experiment with MDA-N were 15.6 µM (inactive), 14.3 µM (inactive) and 13.8 µM (inactive), respectively.
For `Cc1cc(O)nc(NNC(C#N)c2ccc([N+](=O)[O-])cc2)n1` (stereo not given), the GI50 was > 100 µM (inactive) in the experiment with LXFL 529; > 100 µM (inactive) in the experiment on M19-MEL; 42.6 µM (inactive) in the experiment with SNB-78; > 100 µM (inactive) in the experiment with KM-20L2; > 100 µM (inactive) in the experiment with HOP-18.
For the compound `COC[C@@H](/N=C/N1CCc2cc(OC)c(OC)cc2[C@@H]1C)C(C)(C)C`, the GI50 in the experiment with LXFL 529, with M19-MEL, in the experiment on RXF 631, with KM-20L2 and with HOP-18 was > 100 µM (inactive) throughout.
As for `COc1ccc2c(c1)[n+]([O-])c(-c1ccc([N+](=O)[O-])cc1)c(N)[n+]2[O-]`, the GI50 with LXFL 529 was 39.5 µM (inactive); in the experiment with RXF 631 it was > 100 µM (inactive); in the experiment on SNB-78 it was 96.4 µM (inactive); in the experiment on KM-20L2, 49.5 µM (inactive); with HOP-18, > 100 µM (inactive).
Turning to `CC(=O)OCC(OC(C)=O)C(OC(C)=O)C(OC(C)=O)C(=O)CNn1c(-c2ccccc2Cl)nc2ccc(Br)cc2c1=O` (stereo not given), the GI50 was 36.9 µM (inactive) with LXFL 529, > 100 µM (inactive) in the experiment on M19-MEL, 65.6 µM (inactive) in the experiment on SNB-78 and > 100 µM (inactive) in the experiment with KM-20L2.
In the case of `CN[C@H](C)[C@@H](OC)c1ccccc1`, the GI50 in the experiment with LXFL 529, in the experiment on M19-MEL, in the experiment with SNB-78, in the experiment on KM-20L2 and in the experiment on HOP-18 was > 100 µM (inactive) each time.
On to `CC(=O)NC(CCCCNCc1ccccc1)C(=O)NCc1ccccc1` (stereo not given), for which the GI50 in the experiment with LXFL 529, with M19-MEL, with SNB-78 and in the experiment on KM-20L2 was > 100 µM (inactive) each time.
As to `COC(=O)c1c(OC(C)=O)ccc2c1c1c(OC(C)=O)c3ccccc3c(OC(C)=O)c1n2Cc1ccccc1`, the GI50 in the experiment on T47D is 1.16 µM (inactive); with NCI/ADR-RES, 7.06 µM (inactive); in the experiment on MDA-N, 14.2 µM (inactive).
As for `CCN(CC)CCNC(=O)c1ccccc1Nc1c(Cl)cccc1Cl`, the GI50 was 16.5 µM (inactive) in the experiment on LXFL 529, 16.1 µM (inactive) in the experiment on M19-MEL, 16.4 µM (inactive) in the experiment on SNB-78 and 2.92 µM (inactive) in the experiment with KM-20L2.
Take `COC(=O)C(=O)CC(=O)CCn1ncc(Cl)c(Cl)c1=O`: the GI50 in the experiment on LXFL 529 was 10 µM (inactive); with M19-MEL it was 4.01 µM (inactive); in the experiment on RXF 631, 8.55 µM (inactive); in the experiment on SNB-78 it was 20.5 µM (inactive); in the experiment with KM-20L2, 16.9 µM (inactive).
For `NCc1ccc(O)c(O)c1O`, the GI50 is 26.2 µM (inactive) with T47D; 16.8 µM (inactive) with LXFL 529; 12.8 µM (inactive) with M19-MEL; > 65.9 µM (inactive) in the experiment with SNB-78; 30.2 µM (inactive) with KM-20L2; > 56.8 µM (inactive) in the experiment on HOP-18. Further, the GI50 in the experiment with MDA-N is > 10 µM (inactive).
Turning to `COC1=CC(=O)C2C(C1=O)[C@@H]1c3ccccc3OC[C@H]21` (stereo not given in full), the GI50 in the experiment on LXFL 529, in the experiment on SNB-78, in the experiment with KM-20L2 and in the experiment on HOP-18 was > 100 µM (inactive) each time.
Consider `CC1C(=O)CCC1C(Sc1ccccc1)(Sc1ccccc1)Sc1ccccc1` (stereo not given), for which the GI50 in the experiment on LXFL 529 is 17.1 µM (inactive); with M19-MEL, 21.1 µM (inactive); in the experiment with RXF 631, 25.9 µM (inactive); with SNB-78 it was 37.8 µM (inactive).
As for `N=C(N)NS(=O)(=O)c1ccc(NCc2c3ccccc3[n+]([O-])c3ccccc23)cc1`, the GI50 with LXFL 529 was 17.1 µM (inactive); in the experiment on M19-MEL it was 22.9 µM (inactive); in the experiment on SNB-78, 31.6 µM (inactive); with KM-20L2, 30.1 µM (inactive); with HOP-18 it was 8.63 µM (inactive).
For the compound `CCc1ccccc1NC(=O)C1=C(C)NC(C)=C(C(=O)Nc2ccccc2CC)C1c1ccc2c(c1)OCO2`, the GI50 was 31.3 µM (inactive) with LXFL 529, 40.9 µM (inactive) with M19-MEL, 34 µM (inactive) with SNB-78 and > 10 µM (inactive) in the experiment on KM-20L2.
With `C/C(=N\NC(=S)N1CCN(c2ccccn2)CC1)c1ccccn1`, the GI50 is 0.107 µM (active) in the experiment with T47D; 0.000342 µM (active) with LXFL 529; 1.01 µM (active) with M19-MEL; 5.38 µM (inactive) in the experiment on SNB-78; 0.000413 µM (active) in the experiment with KM-20L2; 0.167 µM (active) in the experiment with MDA-N.
Turning to `Cc1ccc(S(=O)(=O)NC2CCCCO2)cc1` (stereo not given), the GI50 in the experiment on LXFL 529, in the experiment on M19-MEL, in the experiment on SNB-78, in the experiment with KM-20L2 and in the experiment with HOP-18 was > 100 µM (inactive) each time.
Regarding `O=C1NC(=O)C2C1N(Cc1ccccc1)C(=O)N2Cc1ccccc1` (stereo not given), the GI50 in the experiment on LXFL 529, in the experiment on M19-MEL, with RXF 631, in the experiment on SNB-78 and in the experiment on KM-20L2 was > 100 µM (inactive) throughout.
As for `O=C(NC1CCC[C@H]1OC(=O)c1ccccc1)c1ccccc1` (stereo not given in full), the GI50 in the experiment on M19-MEL was > 100 µM (inactive); in the experiment with RXF 631, 66.8 µM (inactive); in the experiment with SNB-78, > 100 µM (inactive); in the experiment with KM-20L2 it was > 10 µM (inactive).
With `C=Cc1ccc(C)[n+](C[Si](C)(C)O[Si](C)(C)C[n+]2cc(C=C)ccc2C)c1`, the GI50 in the experiment on LXFL 529, in the experiment on M19-MEL, in the experiment with SNB-78, with KM-20L2 and in the experiment with HOP-18 was > 100 µM (inactive) in each case.
As for `COc1cc2c(c(OC)c1OC)-c1ccc(SC)c(=O)cc1[C@@H](NC(=O)c1ccc([N+](=O)[O-])cc1)CC2`, the GI50 is 0.0195 µM (active) in the experiment with M19-MEL, < 0.01 µM (active) with RXF 631, < 0.0025 µM (active) in the experiment with SNB-78 and < 0.0025 µM (active) with KM-20L2.
Consider `Nc1ccccc1S(=O)(=O)N(CC(=O)O)c1ccccc1`, for which the GI50 in the experiment on LXFL 529, in the experiment on M19-MEL, in the experiment on RXF 631, with KM-20L2 and with HOP-18 was > 100 µM (inactive) each time.
Turning to `CN(C)Cc1cc(C(=O)/C=C/c2ccc(Cl)c(Cl)c2)cc(CN(C)C)c1O`, the GI50 was 4.41 µM (inactive) in the experiment with T47D, 2.24 µM (inactive) in the experiment with NCI/ADR-RES and 3.08 µM (inactive) in the experiment on MDA-N.
For `CCC(C)C1NC(=O)C(CC(C)C)NC(=O)C(C(C)C)NC(=O)C2CSSCC(NC1=O)C(=O)N2` (stereo not given) (cyclo(CCVLI); disulfide 1-2; configuration not given here), in that order: 0.0305 µM (active), 2.55 µM (inactive) and 0.184 µM (active).
The like results for `C=C1C(=O)[C@]23C[C@H]1C[C@@H](O)[C@H]2[C@]1(COC3=O)[C@@H](OC(C)=O)CC[C@@](C)(COC(C)=O)[C@H]1C=O` [LOXOTHYRIN A] were, in that order, 11.7 µM (inactive), > 50 µM (inactive) and > 50 µM (inactive).
